# The supplement of paper PMC10307832
# Key:
# Assay in all cases: relative viability (nuclei count vs DMSO), 5 days (fraction); higher = more cells survive
# [1] = compound: Cc1ccc(C(=O)N(CCCN)[C@@H](c2nc3cc(Cl)ccc3c(=O)n2Cc2ccccc2)C(C)C)cc1 [Ispinesib] + CS(=O)(=O)CCNCc1ccc(-c2ccc3ncnc(Nc4ccc(OCc5cccc(F)c5)c(Cl)c4)c3c2)o1 [Lapatinib] (partner 2 µM)
# How it was run: (§1)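 Values are medians from duplicate plates. Each reflects relative viability, defined as the nuclei count of treated wells over that of vehicle wells. Lung cancer cell lines in 1536-well plates were pin-tool dosed one day after seeding with one drug alone or with a fixed anchor-drug dose plus five library-drug doses (not always all listed) in √10 steps, then fixed, stained and imaged at 4× after 5 days.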
# [2] = compound: Cc1ccc(C(=O)N(CCCN)[C@@H](c2nc3cc(Cl)ccc3c(=O)n2Cc2ccccc2)C(C)C)cc1 [Ispinesib] + Cc1nc(Nc2ncc(C(=O)Nc3c(C)cccc3Cl)s2)cc(N2CCN(CCO)CC2)n1 [Dasatinib] (partner 0.075 µM)
# How it was run: as §1
# [3] = compound: C[C@]1(O)C[C@@H](c2nc(-c3ccc4ccc(-c5ccccc5)nc4c3)c3c(N)nccn32)C1 [Linsitinib] + O=C(CCCCCCC(=O)Nc1ccccc1)NO [Vorinostat] (partner 1 µM)
# How it was run: as §1
# [4] = compound: Cc1ccc(C(=O)N(CCCN)[C@@H](c2nc3cc(Cl)ccc3c(=O)n2Cc2ccccc2)C(C)C)cc1 [Ispinesib] + O=C(CCCCCCC(=O)Nc1ccccc1)NO [Vorinostat] (partner 1 µM)
# How it was run: as §1
cell line,measurement,setting,value
NCI-H1666,relative viability,[1]; first compound 0.001 µM,0.703
same,relative viability,[1]; first compound 0.003162 µM,0.801
same,relative viability,[1]; first compound 0.01 µM,0.596
same,relative viability,[1]; first compound 0.03162 µM,0.279
same,relative viability,[1]; first compound 0.1 µM,0.292
same,relative viability,[2]; first compound 0.001 µM,0.864
same,relative viability,[2]; first compound 0.003162 µM,0.894
same,relative viability,[2]; first compound 0.01 µM,0.776
same,relative viability,[2]; first compound 0.03162 µM,0.594
same,relative viability,[2]; first compound 0.1 µM,0.419
same,relative viability,[3]; first compound 0.01 µM,1
same,relative viability,[3]; first compound 0.03162 µM,1.06
same,relative viability,[3]; first compound 0.1 µM,1.02
same,relative viability,[3]; first compound 0.3162 µM,0.617
same,relative viability,[3]; first compound 1 µM,0.922
same,relative viability,[4]; first compound 0.001 µM,1.11
same,relative viability,[4]; first compound 0.003162 µM,1.05
same,relative viability,[4]; first compound 0.01 µM,1.08
same,relative viability,[4]; first compound 0.03162 µM,1.07
same,relative viability,[4]; first compound 0.1 µM,0.84
NCI-H1734,relative viability,[1]; first compound 0.001 µM,1.16
same,relative viability,[1]; first compound 0.003162 µM,1.11
same,relative viability,[1]; first compound 0.01 µM,1.4
same,relative viability,[1]; first compound 0.03162 µM,0.408
same,relative viability,[1]; first compound 0.1 µM,0.296
same,relative viability,[2]; first compound 0.001 µM,0.428
same,relative viability,[2]; first compound 0.003162 µM,0.53
same,relative viability,[2]; first compound 0.01 µM,0.53
same,relative viability,[2]; first compound 0.03162 µM,0.337
same,relative viability,[2]; first compound 0.1 µM,0.187
same,relative viability,[3]; first compound 0.01 µM,0.865
same,relative viability,[3]; first compound 0.03162 µM,0.727
same,relative viability,[3]; first compound 0.1 µM,0.877
same,relative viability,[3]; first compound 0.3162 µM,0.554
same,relative viability,[3]; first compound 1 µM,0.541
same,relative viability,[4]; first compound 0.001 µM,0.854
same,relative viability,[4]; first compound 0.003162 µM,0.904
same,relative viability,[4]; first compound 0.01 µM,0.91
same,relative viability,[4]; first compound 0.03162 µM,0.552
same,relative viability,[4]; first compound 0.1 µM,0.262
NCI-H1755,relative viability,[1]; first compound 0.001 µM,1.02
same,relative viability,[1]; first compound 0.003162 µM,1.16
same,relative viability,[1]; first compound 0.01 µM,1.09
same,relative viability,[1]; first compound 0.03162 µM,0.41
same,relative viability,[1]; first compound 0.1 µM,0.203
same,relative viability,[2]; first compound 0.001 µM,0.391
same,relative viability,[2]; first compound 0.003162 µM,0.453
same,relative viability,[2]; first compound 0.01 µM,0.387
same,relative viability,[2]; first compound 0.03162 µM,0.352
same,relative viability,[2]; first compound 0.1 µM,0.237
same,relative viability,[3]; first compound 0.01 µM,0.741
same,relative viability,[3]; first compound 0.03162 µM,0.773
same,relative viability,[3]; first compound 0.1 µM,0.821
same,relative viability,[3]; first compound 0.3162 µM,0.58
same,relative viability,[3]; first compound 1 µM,0.727
same,relative viability,[4]; first compound 0.001 µM,0.726
same,relative viability,[4]; first compound 0.003162 µM,0.789
same,relative viability,[4]; first compound 0.01 µM,0.937
same,relative viability,[4]; first compound 0.03162 µM,0.636
same,relative viability,[4]; first compound 0.1 µM,0.419
NCI-H1793,relative viability,[1]; first compound 0.001 µM,0.655
same,relative viability,[1]; first compound 0.003162 µM,0.84
same,relative viability,[1]; first compound 0.01 µM,0.909
same,relative viability,[1]; first compound 0.03162 µM,0.377
same,relative viability,[1]; first compound 0.1 µM,0.238
same,relative viability,[2]; first compound 0.001 µM,0.361
same,relative viability,[2]; first compound 0.003162 µM,0.412
same,relative viability,[2]; first compound 0.01 µM,0.451
same,relative viability,[2]; first compound 0.03162 µM,0.334
same,relative viability,[2]; first compound 0.1 µM,0.141
same,relative viability,[3]; first compound 0.01 µM,0.816
same,relative viability,[3]; first compound 0.03162 µM,0.749
same,relative viability,[3]; first compound 0.1 µM,0.705
same,relative viability,[3]; first compound 0.3162 µM,0.536
same,relative viability,[3]; first compound 1 µM,0.433
same,relative viability,[4]; first compound 0.001 µM,0.702
same,relative viability,[4]; first compound 0.003162 µM,0.881
same,relative viability,[4]; first compound 0.01 µM,0.925
same,relative viability,[4]; first compound 0.03162 µM,0.38
same,relative viability,[4]; first compound 0.1 µM,0.318
NCI-H1915,relative viability,[1]; first compound 0.001 µM,0.958
same,relative viability,[1]; first compound 0.003162 µM,1.06
same,relative viability,[1]; first compound 0.01 µM,1
same,relative viability,[1]; first compound 0.03162 µM,0.363
same,relative viability,[1]; first compound 0.1 µM,0.139
same,relative viability,[2]; first compound 0.001 µM,0.304
same,relative viability,[2]; first compound 0.003162 µM,0.312
same,relative viability,[2]; first compound 0.01 µM,0.38
same,relative viability,[2]; first compound 0.03162 µM,0.25
same,relative viability,[2]; first compound 0.1 µM,0.137
same,relative viability,[3]; first compound 0.01 µM,0.547
same,relative viability,[3]; first compound 0.03162 µM,0.51
same,relative viability,[3]; first compound 0.1 µM,0.528
same,relative viability,[3]; first compound 0.3162 µM,0.46
same,relative viability,[3]; first compound 1 µM,0.394
same,relative viability,[4]; first compound 0.001 µM,0.532
same,relative viability,[4]; first compound 0.003162 µM,0.539
same,relative viability,[4]; first compound 0.01 µM,0.525
same,relative viability,[4]; first compound 0.03162 µM,0.238
same,relative viability,[4]; first compound 0.1 µM,0.101
NCI-H1944,relative viability,[1]; first compound 0.001 µM,0.863
same,relative viability,[1]; first compound 0.003162 µM,0.799
same,relative viability,[1]; first compound 0.01 µM,1.01
same,relative viability,[1]; first compound 0.03162 µM,0.528
same,relative viability,[1]; first compound 0.1 µM,0.27
same,relative viability,[2]; first compound 0.001 µM,0.214
same,relative viability,[2]; first compound 0.003162 µM,0.266
same,relative viability,[2]; first compound 0.01 µM,0.211
same,relative viability,[2]; first compound 0.03162 µM,0.184
same,relative viability,[2]; first compound 0.1 µM,0.104
same,relative viability,[3]; first compound 0.01 µM,0.508
same,relative viability,[3]; first compound 0.03162 µM,0.674
same,relative viability,[3]; first compound 0.1 µM,0.537
same,relative viability,[3]; first compound 0.3162 µM,0.45
same,relative viability,[3]; first compound 1 µM,0.317
same,relative viability,[4]; first compound 0.001 µM,0.671
same,relative viability,[4]; first compound 0.003162 µM,0.496
same,relative viability,[4]; first compound 0.01 µM,0.575
same,relative viability,[4]; first compound 0.03162 µM,0.345
same,relative viability,[4]; first compound 0.1 µM,0.152
NCI-H1975,relative viability,[1]; first compound 0.001 µM,0.931
same,relative viability,[1]; first compound 0.003162 µM,0.907
same,relative viability,[1]; first compound 0.01 µM,0.71
same,relative viability,[1]; first compound 0.03162 µM,0.302
same,relative viability,[1]; first compound 0.1 µM,0.179
same,relative viability,[2]; first compound 0.001 µM,0.443
same,relative viability,[2]; first compound 0.003162 µM,0.43
same,relative viability,[2]; first compound 0.01 µM,0.425
same,relative viability,[2]; first compound 0.03162 µM,0.158
same,relative viability,[2]; first compound 0.1 µM,0.114
same,relative viability,[3]; first compound 0.01 µM,0.752
same,relative viability,[3]; first compound 0.03162 µM,0.614
same,relative viability,[3]; first compound 0.1 µM,0.748
same,relative viability,[3]; first compound 0.3162 µM,0.575
same,relative viability,[3]; first compound 1 µM,0.632
same,relative viability,[4]; first compound 0.001 µM,0.738
same,relative viability,[4]; first compound 0.003162 µM,0.766
same,relative viability,[4]; first compound 0.01 µM,0.798
same,relative viability,[4]; first compound 0.03162 µM,0.586
same,relative viability,[4]; first compound 0.1 µM,0.279
NCI-H1993,relative viability,[1]; first compound 0.001 µM,0.871
same,relative viability,[1]; first compound 0.003162 µM,0.899
same,relative viability,[1]; first compound 0.01 µM,0.764
same,relative viability,[1]; first compound 0.03162 µM,0.759
same,relative viability,[1]; first compound 0.1 µM,0.58
same,relative viability,[2]; first compound 0.001 µM,0.617
same,relative viability,[2]; first compound 0.003162 µM,0.373
same,relative viability,[2]; first compound 0.01 µM,0.634
same,relative viability,[2]; first compound 0.03162 µM,0.548
same,relative viability,[2]; first compound 0.1 µM,0.584
same,relative viability,[3]; first compound 0.01 µM,0.936
same,relative viability,[3]; first compound 0.03162 µM,0.737
same,relative viability,[3]; first compound 0.1 µM,0.781
same,relative viability,[3]; first compound 0.3162 µM,0.286
same,relative viability,[3]; first compound 1 µM,0.644
same,relative viability,[4]; first compound 0.001 µM,0.984
same,relative viability,[4]; first compound 0.003162 µM,0.738
same,relative viability,[4]; first compound 0.01 µM,0.74
same,relative viability,[4]; first compound 0.03162 µM,0.515
same,relative viability,[4]; first compound 0.1 µM,0.438
